“And” between values parts separate entries of the source, which are not always exact repeats. Equal entries are not always repeated. Marks after values point to notes of the source that are not given here.
Tests used:
OAT4 = molecular target: T1, OAT4 (Homo sapiens, UniProt Q9NSA0); assay: Uptake transport assay in OAT4-expressing HEK293 cells; format: cell-based; conditions: for transport by OAT4: 2 and 50 μM, 10 min; for Vmax (pmol/106 cells/min) OAT4: uptake, 2 min
T1 construct: expressed in transfected cells; host or cells: HEK293 (recombinant baculovirus-mediated transduction)
T1 sequence (Q9NSA0 1-550): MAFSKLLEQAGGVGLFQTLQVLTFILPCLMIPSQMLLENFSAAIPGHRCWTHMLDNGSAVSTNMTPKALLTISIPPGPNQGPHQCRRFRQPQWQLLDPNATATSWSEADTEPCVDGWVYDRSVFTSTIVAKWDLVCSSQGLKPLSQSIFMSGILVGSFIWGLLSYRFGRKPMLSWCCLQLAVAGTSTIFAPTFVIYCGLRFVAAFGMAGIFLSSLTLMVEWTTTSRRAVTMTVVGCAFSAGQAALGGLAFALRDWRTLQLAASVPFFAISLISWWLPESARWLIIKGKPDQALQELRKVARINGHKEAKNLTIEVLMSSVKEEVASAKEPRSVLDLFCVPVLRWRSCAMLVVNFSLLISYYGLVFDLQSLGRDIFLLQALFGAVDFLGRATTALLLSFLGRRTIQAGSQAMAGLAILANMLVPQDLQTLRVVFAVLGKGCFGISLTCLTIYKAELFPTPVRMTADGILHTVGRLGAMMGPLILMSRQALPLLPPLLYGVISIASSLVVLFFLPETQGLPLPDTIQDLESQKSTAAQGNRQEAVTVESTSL
Description: (§1) The human transporters OATP1B1, OATP1B3, OATP2B1, and OAT1‐OAT4 and a negative control protein (enhanced yellow fluorescent protein, eYFP) were transiently expressed in human embryonic kidney 293 (HEK293) cells by recombinant baculovirus‐mediated transduction. Baculoviruses carrying human genes for the transporters were prepared as reported previously. HEK293 cells were cultured in DMEM containing 10% fetal bovine serum at 37°C and 5% CO2 and passaged two to three times per week. For the transport studies, 0.05 × 10^6 cells for 48‐well plates (OATPs) or 0.06 × 10^6 cells for 24‐well plates (OATs) were seeded onto cell‐culture treated well plates coated with poly‐D‐lysine. After 1 day, cells were transduced to produce recombinant proteins by changing media to DMEM containing 30 μL (48‐well plates) or 60 μL (24‐well plates) of recombinant baculovirus and 3 mM (OATs) or 5 mM (OATPs) sodium butyrate in a total media volume of 500 μL. The cells were cultured for a further 2 days before the transport assays.
(§2) For the transport studies, media were removed and cells were washed once with warm transport uptake buffer (TP‐buffer—pH 7.4 HBSS with 25 mM HEPES and 4 mM sodium bicarbonate). Each experiment included triplicate (OATP) or duplicate (OAT) samples for every test condition. The uptake was started by removing liquid from wells and applying warm TP‐buffer (200 μL for 24‐well plates or 125 μL for 48‐well plates) containing a test compound to cells. Transport assays were terminated after a pre‐specified incubation time (reported in figure legends) by removing substrate solution and washing cells three times with cold TP‐buffer (300 μL for 48‐well plates and 400 μL for 24‐well plates). For the liquid chromatography mass spectrometry (LC–MS) analysis, compounds were extracted from cells with 125 μL (48‐well plates) or 250 μL (24‐well plates) of an ultrapure‐water solution containing 75% methanol and 0.1% formic acid, shaking at 250 RPM for 30 min. […] Samples were transferred to well plates, centrifuged at 3000 g for 30 min, and transferred to a new well plate for the analysis.
(§3) Equation (2) (the Michaelis–Menten equation) was fit to the transport kinetic assay data. […] (2) Uptake=Vmax×S/Km+S

OATP1B1 [1] = molecular target: T2, OATP1B1 (Homo sapiens, UniProt Q9Y6L6); assay: OATP1B1 inhibition, rosuvastatin uptake into transporter-expressing HEK293 cells; format: cell-based; conditions: for IC50: IC50 (95% CI), μM OATP1B1, 2.5 μM rosuvastatin, 2 min, 30 min preincubation; for Calculated R-value OATP1B1: R = 1 + (I in,max,u/IC50), FDA cut-off ≥ 1.1
T2 construct: expressed in transfected cells; host or cells: HEK293 (recombinant baculovirus-mediated transduction)
T2 sequence (Q9Y6L6 1-691): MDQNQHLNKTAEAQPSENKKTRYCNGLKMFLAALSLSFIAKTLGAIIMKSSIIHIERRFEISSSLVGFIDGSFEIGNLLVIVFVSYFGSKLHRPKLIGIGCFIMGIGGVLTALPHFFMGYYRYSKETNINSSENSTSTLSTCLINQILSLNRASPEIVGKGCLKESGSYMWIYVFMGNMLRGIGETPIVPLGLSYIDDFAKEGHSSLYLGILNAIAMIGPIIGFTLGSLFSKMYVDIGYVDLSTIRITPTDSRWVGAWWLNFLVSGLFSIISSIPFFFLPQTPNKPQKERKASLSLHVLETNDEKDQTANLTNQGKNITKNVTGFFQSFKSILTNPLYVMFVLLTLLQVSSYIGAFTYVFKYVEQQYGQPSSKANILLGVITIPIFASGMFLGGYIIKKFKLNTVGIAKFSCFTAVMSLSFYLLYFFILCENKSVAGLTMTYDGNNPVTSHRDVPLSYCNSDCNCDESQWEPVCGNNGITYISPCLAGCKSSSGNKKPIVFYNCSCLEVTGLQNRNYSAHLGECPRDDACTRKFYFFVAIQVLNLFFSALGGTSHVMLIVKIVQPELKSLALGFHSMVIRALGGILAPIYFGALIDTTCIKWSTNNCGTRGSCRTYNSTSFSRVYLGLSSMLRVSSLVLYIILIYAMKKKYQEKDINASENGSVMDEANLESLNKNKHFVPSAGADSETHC
Description: as §1, §2
In the OATP inhibition assays, inhibitors in warm TP‐buffer were directly applied to cells after media removal, followed by a 30‐min preincubation step in the presence of inhibitors. […] OAT1 and OAT3 cells were lysed with 200 μL of 1 M sodium hydroxide for 10 min, and 150 μL of these samples were transferred to a black well plate for fluorescein quantification. […]
For the inhibition data analysis, the average of measured concentrations in the control cells was subtracted from the average of measured concentrations in transporter‐expressing cells for each inhibitor concentration and then normalized to the vehicle sample that represents 100% transport activity. […]

MRP3 = tested on: T3, MRP3; assay: Efflux transport assay in MRP3 HEK293 membrane vesicles; format: biochemical, human; conditions: 5 and 50 µM, 10 min
T3 construct: expressed in transfected cells; host or cells: HEK293 cells

OATP1B1 [2] = molecular target: T2, OATP1B1; assay: Uptake transport assay in OATP1B1-expressing HEK293 cells; format: cell-based; conditions: for transport by OATP1B1: 2 and 50 μM, 10 min
Description: as §1, §2, §3

| transport by OAT4 (OAT4) | Vmax (pmol/106 cells/min) OAT4 (OAT4) [pmol/106 cells/min] | IC50 (OATP1B1 [1]) | Calculated R-value OATP1B1 (OATP1B1 [1]) | transport by MRP3 (MRP3) | transport by OATP1B1 (OATP1B1 [2]) | Vmax (pmol/106 cells/min) OATP1B1 (OATP1B1 [2]; uptake, 2 min) [pmol/106 cells/min] | Km (OATP1B1 [2]; uptake, 2 min) [µM] | SMILES |
| --- | --- | --- | --- | --- | --- | --- | --- | --- |
| transported | 239 | 3.9 µM and 3.86 µM | 2.4 ^a | did not transport | transported | 15.9 | – | Cc1onc(-c2c(Cl)cccc2Cl)c1C(=O)N[C@@H]1C(=O)N2[C@@H]1SC(C)(C)[C@@H]2C(=O)O [Dicloxacillin] |
| transported | 245 | 31 µM | 1.5 ^a | did not transport | transported | 23.5 | 10 to 18 | Cc1onc(-c2c(F)cccc2Cl)c1C(=O)N[C@@H]1C(=O)N2[C@@H]1SC(C)(C)[C@@H]2C(=O)O [Flucloxacillin] |
